Source: patent US10696692B2, “Amido-benzyl sulfone and sulfoxide derivates” (Forma TM, LLC, priority 2012, dated 2020)
Where two headings read alike, the source gives them in different places.

Experiments:
[1] = tested on: A2780 cells; experiment: Assay 2: In-Vitro Cell Proliferation Assay (A2780 cells, SRB readout, 72 hours); assay type: cell-based; settings: A2780 cells, 72 hours, SRB, read-out: Cell Proliferation (IC50);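 also: viable cells counted via sulforhodamine B staining, absorbance at 570 nm, after 72 h exposure at 37 °C, DMSO 0.1% as control, media-only background subtracted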
[2] = molecular target: NAMPT (Homo sapiens (Human), UniProt P43490); experiment: Assay 1: Biochemical Inhibition Assay (NAMPT enzymatic reaction, NMN quantified by mass spectrometry); settings: read-out: Biochemical (IC50);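 also: recombinant His-tagged human NAMPT preincubated with compound 15 min, then reacted 30 min at rt with 1 µM NAM, 100 µM PRPP, 2.5 mM ATP, NMN product read by RapidFire MS, normalized to L-Cystathionine internal standard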
Chain of NAMPT (P43490 whole entry): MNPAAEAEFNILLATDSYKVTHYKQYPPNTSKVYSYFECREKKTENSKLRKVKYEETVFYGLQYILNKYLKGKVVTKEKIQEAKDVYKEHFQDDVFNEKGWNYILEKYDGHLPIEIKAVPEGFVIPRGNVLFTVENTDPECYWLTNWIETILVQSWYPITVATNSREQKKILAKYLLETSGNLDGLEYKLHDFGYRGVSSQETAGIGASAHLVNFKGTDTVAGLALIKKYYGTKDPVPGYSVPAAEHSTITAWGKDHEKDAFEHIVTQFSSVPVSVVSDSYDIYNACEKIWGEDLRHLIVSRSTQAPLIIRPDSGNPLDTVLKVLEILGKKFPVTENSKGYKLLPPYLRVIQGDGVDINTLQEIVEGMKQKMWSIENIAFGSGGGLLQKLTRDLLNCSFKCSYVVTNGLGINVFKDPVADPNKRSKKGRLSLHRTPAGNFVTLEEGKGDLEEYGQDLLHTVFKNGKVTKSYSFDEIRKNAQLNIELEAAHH

O=C(NCc1ccc(S(=O)(=O)N2CC(F)(F)C2)cc1)c1ccc2nccn2c1 [Example 239, N-[[4-(3,3-difluoroazetidin-1-yl)sulfonylphenyl]methyl] imidazo[1,2-a]pyridine-6-carboxamide]
IC50 ([1]; Homo sapiens, A2780, 72 h): 35.6 nM | IC50 [2]: 33.3 nM

O=C(NCc1ccc(S(=O)(=O)N2CCC2)cc1)c1ccc2nccn2c1 [Example 240, N-[[4-(azetidin-1-ylsulfonyl)phenyl]methyl] imidazo[1,2-a]pyridine-6-carboxamide]
IC50 ([1]; Homo sapiens, A2780, 72 h): 140 nM | IC50 [2]: 41 nM

CC(C)(C)OC(=O)N1CCC2(CCN(S(=O)(=O)c3ccc(CNC(=O)c4ccc5nccn5c4)cc3)C2)C1 (stereo not drawn) [Example 241, tert-butyl 2-[4-[(imidazo[1,2-a]pyridine-6-carbonylamino)methyl]phenyl] sulfonyl-2,7-diazaspiro[4.4]nonane-7-carboxylate]
IC50 ([1]; Homo sapiens, A2780, 72 h): 4.14 nM | IC50 [2]: 14.4 nM

CC(C)(C)OC(=O)N1CCCCC12CCN(S(=O)(=O)c1ccc(CNC(=O)c3ccc4nccn4c3)cc1)C2 (stereo not drawn) [Example 243, tert-butyl 2-[4-[(imidazo[1,2-a]pyridine-6-carbonylamino)methyl]phenyl] sulfonyl-2,6-diazaspiro[4.5]decane-6-carboxylate]
IC50 ([1]; Homo sapiens, A2780, 72 h): 43.3 nM | IC50 [2]: 14.9 nM

CN(C)C(=O)C1CN(S(=O)(=O)c2ccc(CNC(=O)c3ccc4nccn4c3)cc2)C1 [Example 244, N-[[4-[3-(dimethylcarbamoyl)azetidin-1-yl]sulfonylphenyl]methyl] imidazo[1,2-a]pyridine-6-carboxamide]
IC50 ([1]; Homo sapiens, A2780, 72 h): 14.4 nM | IC50 [2]: 14.1 nM

O=C(NCc1ccc(S(=O)(=O)N2CC(O)C2)cc1)c1ccc2nccn2c1 [Example 245, N-[[4-(3-hydroxyazetidin-1-yl)sulfonylphenyl]methyl] imidazo[1,2-a]pyridine-6-carboxamide]
IC50 ([1]; Homo sapiens, A2780, 72 h): 274 nM | IC50 [2]: 52.3 nM

CN1CCN(C(=O)C2CN(S(=O)(=O)c3ccc(CNC(=O)c4ccc5nccn5c4)cc3)C2)CC1 [Example 246, N-[[4-[3-(4-methylpiperazine-1-carbonyl)azetidin-1-yl]sulfonylphenyl]methyl] imidazo[1,2-a]pyridine-6-carboxamide]
IC50 ([1]; Homo sapiens, A2780, 72 h): 27.3 nM | IC50 [2]: 7.03 nM

O=C(NCc1ccc(S(=O)(=O)C2CCN(C3COC3)CC2)cc1)c1ccc2nccn2c1 [Example 248, N-[[4-[[1-(oxetan-3-yl)-4-piperidyl]sulfonyl]phenyl]methyl]imidazo[1,2-a] pyridine-6-carboxamide]
IC50 [1]: 5.58 nM | IC50 [2]: 19.4 nM

O=C(NCc1ccc(S(=O)(=O)C2CCN(C3COC3)CC2)cc1)c1cnc2nccn2c1 [Example 251, N-[[4-[[1-(oxetan-3-yl)-4-piperidyl]sulfonyl]phenyl]methyl]imidazo[1,2-a] pyrimidine-6-carboxamide]
IC50 [1]: 121 nM | IC50 [2]: 4.13 nM

O=C(NCc1ccc(S(=O)(=O)C2CCN(C3COC3)CC2)cc1)c1cc2ccncc2s1 [Example 252, N-[[4-[[1-(oxetan-3-yl)-4-piperidyl]sulfonyl]phenyl]methyl]thieno[2,3-c]pyridine-2-carboxamide]
IC50 [1]: 1.48 nM | IC50 [2]: 4.27 nM

O=C(NCc1ccc(S(=O)(=O)N2CC3(CCCNC3)C2)cc1)c1ccc2nccn2c1 [Example 253, N-[[4-(2,8-diazaspiro[3,5]nonan-2-ylsulfonyl)phenyl]methyl] imidazo[1,2-a]pyridine-6-carboxamide]
IC50 ([1]; Homo sapiens, A2780, 72 h): 31.3 nM | IC50 [2]: 27.4 nM

O=C(NCc1ccc(S(=O)(=O)N2CCC3(CCCN3)C2)cc1)c1ccc2nccn2c1 (stereo not drawn) [Example 255, N-[[4-(1,7-diazaspiro[4.4]nonan-7-sulfonyl)phenyl]methyl] imidazo[1,2-a]pyridine-6-carboxamide]
IC50 ([1]; Homo sapiens, A2780, 72 h): 36.2 nM | IC50 [2]: 57 nM

O=C(NCc1ccc(S(=O)(=O)N2CCC3(CCNCC3)C2)cc1)c1ccc2nccn2c1 [Example 256, N-[[4-(2,8-diazaspiro[4.5]decan-2-ylsulfonyl)phenyl]methyl] imidazo[1,2-a]pyridine-6-carboxamide]
IC50 ([1]; Homo sapiens, A2780, 72 h): 66.9 nM | IC50 [2]: 53.7 nM

O=C(NCc1ccc(S(=O)(=O)N2CCC3(CCCN3)C2)cc1)c1ccc2nccn2c1 (stereo not drawn) [Example 257, N-[[4-(1,7-diazaspiro[4.4]nonan-7-ylsulfonyl)phenyl]methyl] imidazo[1,2-a]pyridine-6-carboxamide]
IC50 [1]: 26.5 nM | IC50 [2]: 46.8 nM

CC(=O)N1CC2(C1)CN(S(=O)(=O)c1ccc(CNC(=O)c3ccc4nccn4c3)cc1)C2 [Example 259, N-[[4-[(6-acetyl-2,6-diazaspiro[3.3]heptan-2-yl)sulfonyl]phenyl]methyl] imidazo[1,2-a]pyridine-6-carboxamide]
IC50 ([1]; Homo sapiens, A2780, 72 h): 70 nM | IC50 [2]: 37.8 nM

O=C(NCc1ccc(S(=O)(=O)N2CCC3(CCNC3)C2)cc1)c1ccc2nccn2c1 (stereo not drawn) [Example 262, N-[[4-(2,7-diazaspiro[4.4]nonan-2-ylsulfonyl)phenyl]methyl] imidazo[1,2-a]pyridine-6-carboxamide]
IC50 ([1]; Homo sapiens, A2780, 72 h): 106 nM | IC50 [2]: 64.9 nM

O=C(NCc1ccc(S(=O)(=O)N2CC3(CCOCC3)C2)cc1)c1cc2ccncc2o1 [Example 263, N-[[4-(7-oxa-2-azaspiro[3.5]nonan-2-ylsulfonyl)phenyl]methyl]furo [2,3-c]pyridine-2-carboxamide]
IC50 ([1]; Homo sapiens, A2780, 72 h): 23.4 nM | IC50 [2]: 18.2 nM

O=C(NCc1ccc(S(=O)(=O)C2CCCOC2)cc1)c1cc2cnccc2[nH]1 (stereo not drawn) [Example 266, N-[(4-tetrahydropyran-3-ylsulfonylphenyl)methyl]-1H-pyrrolo[3,2-c]pyridine-2-carboxamide]
IC50 ([1]; Homo sapiens, A2780, 72 h): 18.5 nM | IC50 [2]: 33.1 nM

O=C(NCc1ccc(S(=O)(=O)C2CCCOC2)cc1)c1cnc2[nH]ncc2c1 (stereo not drawn) [Example 267, N-[(4-tetrahydropyran-3-ylsulfonylphenyl)methyl]-1H-pyrazolo[3,4-b]pyridine-5-carboxamide]
IC50 ([1]; Homo sapiens, A2780, 72 h): 176 nM | IC50 [2]: 219 nM

O=C(NCc1ccc(S(=O)(=O)N2CC3(CCOCC3)C2)cc1)c1cnc2[nH]ncc2c1 [Example 269, N-[[4-(7-oxa-2-azaspiro[3.5]nonan-2-ylsulfonyl)phenyl]methyl]-1H-pyrazolo[3,4-b]pyridine-5-carboxamide]
IC50 ([1]; Homo sapiens, A2780, 72 h): 45.1 nM | IC50 [2]: 113 nM

O=C(NCc1ccc(S(=O)(=O)N2CC3(C2)CC(F)(F)C3)cc1)c1ccc2nccn2c1 [Example 270, N-[[4-[(6,6-difluoro-2-azaspiro[3.3]heptan-2-yl)sulfonyl]phenyl]methyl] imidazo[1,2-a]pyridine-6-carboxamide]
IC50 ([1]; Homo sapiens, A2780, 72 h): 6.07 nM | IC50 [2]: 8.77 nM

CN1CCC2(CC1)CN(S(=O)(=O)c1ccc(CNC(=O)c3ccc4nccn4c3)cc1)C2 [Example 271, N-[[4-[(7-methyl-2,7-diazaspiro[3.5]nonan-2-yl)sulfonyl]phenyl]methyl] imidazo[1,2-a]pyridine-6-carboxamide]
IC50 ([1]; Homo sapiens, A2780, 72 h): 12.1 nM | IC50 [2]: 27.5 nM

CN1CCOC2(C1)CN(S(=O)(=O)c1ccc(CNC(=O)c3ccc4nccn4c3)cc1)C2 [Example 272, N-[[4-[(8-methyl-5-oxa-2,8-diazaspiro[3.5]nonan-2-yl)sulfonyl]phenyl]methyl] imidazo[1,2-a]pyridine-6-carboxamide]
IC50 ([1]; Homo sapiens, A2780, 72 h): 10 nM | IC50 [2]: 33.6 nM

CN1CCCC12CN(S(=O)(=O)c1ccc(CNC(=O)c3ccc4nccn4c3)cc1)C2 [Example 273, N-[[4-[(5-methyl-2,5-diazaspiro[3.4]octan-2-yl)sulfonyl)phenyl]methyl] imidazo[1,2-a]pyridine-6-carboxamide]
IC50 ([1]; Homo sapiens, A2780, 72 h): 10.4 nM | IC50 [2]: 25.4 nM

O=C(NCc1ccc(S(=O)(=O)N2CC3(CCCO3)C2)cc1)c1ccc2nccn2c1 [Example 274, N-[(4-(5-oxa-2-azaspiro[3.4]octan-2-ylsulfonyl)phenyl]methyl] imidazo[1,2-a]pyridine-6-carboxamide]
IC50 ([1]; Homo sapiens, A2780, 72 h): 5.93 nM | IC50 [2]: 19 nM

O=C(NCc1ccc(S(=O)(=O)C2CCCOC2)cc1)c1cc2ccncc2o1 (stereo not drawn) [Example 275, N-[(4-tetrahydropyran-3-ylsulfonylphenyl)methyl]furo [2,3-c]pyridine-2-carboxamide]
IC50 ([1]; Homo sapiens, A2780, 72 h): 50.3 nM | IC50 [2]: 30.4 nM

O=C(NCc1ccc(S(=O)(=O)C2CCCOC2)cc1)c1ccc2nccn2c1 (stereo not drawn) [Example 276, N-[(4-tetrahydropyran-3-ylsulfonylphenyl)methyl] imidazo[1,2-a]pyridine-6-carboxamide]
IC50 ([1]; Homo sapiens, A2780, 72 h): 19.9 nM | IC50 [2]: 32.9 nM

Nc1ncc2c(n1)CN(C(=O)NCc1ccc(S(=O)(=O)C3CCOCC3)cc1)C2 [Example 277, 2-amino-N-[(4-tetrahydropyran-4-ylsulfonylphenyl)methyl]-5,7-dihydropyrrolo[3,4-d]pyrimidine-6-carboxamide]
IC50 ([1]; Homo sapiens, A2780, 72 h): 2000 nM | IC50 [2]: 2000 nM

O=C(NCc1ccc(S(=O)(=O)N2CC(F)(F)C2)cc1)c1cnc2[nH]ncc2c1 [Example 281, N-[[4-(3,3-difluoroazetidin-1-yl)sulfonylphenyl]methyl]-1H-pyrazolo[3,4-b]pyridine-5-carboxamide]
IC50 ([1]; Homo sapiens, A2780, 72 h): 378 nM | IC50 [2]: 95.6 nM

O=C(NCc1ccc(S(=O)(=O)N2CCC3(CCNC3=O)C2)cc1)c1cnc2[nH]ncc2c1 (stereo not drawn) [Example 282, N-[[4-[(1-oxo-2,7-diazaspiro[4.4]nonan-7-yl)sulfonyl)phenyl]methyl]-1H-pyrazolo[3,4-b]pyridine-5-carboxamide]
IC50 ([1]; Homo sapiens, A2780, 72 h): 233 nM | IC50 [2]: 101 nM

CN1CCC2(C1)CN(S(=O)(=O)c1ccc(CNC(=O)c3cnc4[nH]ncc4c3)cc1)C2 [Example 283, N-[[4-[(7-methyl-2,7-diazaspiro[3.4]octan-2-yl)sulfonyl]phenyl]methyl]-1H-pyrazolo[3,4-b]pyridine-5-carboxamide]
IC50 ([1]; Homo sapiens, A2780, 72 h): 129 nM | IC50 [2]: 199 nM

O=C(NCc1ccc(S(=O)(=O)N2CCC3(CCCO3)C2)cc1)c1cnc2[nH]ncc2c1 (stereo not drawn) [Example 284, N-[[4-(1-oxa-7-azaspiro[4.4]nonan-7-ylsulfonyl)phenyl]methyl]-1H-pyrazolo[3,4-b]pyridine-5-carboxamide]
IC50 ([1]; Homo sapiens, A2780, 72 h): 42.9 nM | IC50 [2]: 70.9 nM

O=C(NCc1ccc(S(=O)(=O)N2CCC23COC3)cc1)c1cnc2[nH]ncc2c1 [Example 285, N-[[4-(6-oxa-1-azaspiro[3.3]heptan-1-ylsulfonyl)phenyl]methyl]-1H-pyrazolo[3,4-b]pyridine-5-carboxamide]
IC50 ([1]; Homo sapiens, A2780, 72 h): 2000 nM | IC50 [2]: 206 nM
